Experimental data reported in patent US20250179059A1 (The Regents of the University of California, priority 2021, published 2025).
Like-named read-outs stand apart in the source and are kept apart here.

Assays:
[1] = system: human SKM-1 acute myeloid leukemia cells; assay: SKM-1 antiproliferation cell-based assay (ATPlite); settings: Homo sapiens
How it was run: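 Log-phase cells in RPMI 1640/15% FBS were seeded at 34722 cells/mL and exposed for 4 days to nine-concentration DMSO serial dilutions in triplicate. Viability was read as ATP luminescence (ATPlite 1step), and IC50 values came from variable-slope non-linear regression.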

[2] = target: T1, human BRD4 bromodomain II (Homo sapiens, UniProt O60885); assay: Bromodomain binding assay (AlphaScreen), BRD4 BDII
T1 construct: human BRD4 bromodomain II [based on Genbank NM_058243, residues 349-460]; host or cells: E. coli
How it was run: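 First, His6-tagged BRD4 bromodomain (BDI residues 44-170 or BDII residues 349-460) is incubated with compound for 30 min at room temperature. Next the biotinylated H4 peptide is added for 30 min, then donor and acceptor beads, with 60 min in the dark before AlphaScreen reading and IC50 fitting.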

[3] = SKM-1, 96 h, SKM-1 antiproliferation assay, 4 days, Table C2
[4] = AlphaScreen assay, Table C2, read-out: BRD4 BDII IC50
[5] = SKM-1, SKM-1 antiproliferation assay
[6] = BRD4 BDII AlphaScreen assay, read-out: BRD4 BD2 IC50

SMILES	GI50 [1, 3] [nM]	IC50 [2, 4] [nM]	GI50 [1, 5] [nM]	IC50 [2, 6] [nM]
CN1CCN(c2ccc(-c3cccc(-c4cc(C5CC5)nc(N5CCNCC5)c4)c3O)cc2Cl)C1=O [Example 368, 1-(3-chloro-3′-(2-cyclopropyl-6-(piperazin-1-yl)pyridin-4-yl)-2′-hydroxy-[1,1′-biphenyl]-4-yl)-3-methylimidazolidin-2-one]	30 to 300	1 to 10		
COc1ncc(-c2cc(F)cc(-c3ccc(-n4ccn(C)c4=O)c(Cl)c3)c2O)cc1N1CCC2(CCN2C(C)C)C1 (stereo not shown) [Example 879]			0.3 to 30	1 to 10
COc1ncc(-c2cc(F)cc(-c3ccc(-n4ccn(C)c4=O)c(Cl)c3)c2O)cc1N1CCCN(C(C)(C)C)CC1 [Example 853, 1-(3′-(5-(4-(tert-Butyl)-1,4-diazepan-1-yl)-6-methoxypyridin-3-yl)-3-chloro-5′-fluoro-2′-hydroxy-[1,1′-biphenyl]-4-yl)-3-methyl-1H-imidazol-2(3H)-one]			0.3 to 30	0.01 to 1
Cn1ccn(-c2c(F)cc(-c3cc(F)cc(-c4ccnc(N5CCNCC5)c4)c3O)cc2Cl)c1=O [Example 436, 1-(3-chloro-5,5′-difluoro-2′-hydroxy-3′-(2-(piperazin-1-yl)pyridin-4-yl)-[1,1′-biphenyl]-4-yl)-^3-methyl-1H-imidazol-2(3H)-one]	30 to 300	1 to 10		
COc1cc(-c2cc(F)cc(-c3cccc(N4CCN(C(C)(C)C)CC4)c3)c2O)cc(Cl)c1-n1ccn(C)c1=O [Example 910, 1-(3″-(4-(tert-butyl)piperazin-1-yl)-3-chloro-5′-fluoro-2′-hydroxy-5-methoxy-[1,1′:3′,1″-terphenyl]-4-yl)-3-methyl-1H-imidazol-2(3H)-one]			30 to 300	10 to 100
CNc1ncc(-c2nc(C)cc(-c3ccc(-n4ccn(C)c4=O)c(Cl)c3)c2O)cc1N1CCN(C(C)(C)C)CC1 [Example 963, 1-(4-(5′-(4-(tert-butyl)piperazin-1-yl)-3-hydroxy-6-methyl-6′-(methylamino)-[2,3′-bipyridin]-4-yl)-2-chlorophenyl)-3-methyl-1H-imidazol-2(3H)-one]			0.3 to 30	1 to 10
COC(=O)c1cc(-c2ccnc(N3CCNCC3)c2)c(O)c(-c2ccc(NC(C)=O)c(F)c2)c1 [Example 290, Methyl 4′-acetamido-3′-fluoro-6-hydroxy-5-(2-(piperazin-1-yl)pyridin-4-yl)-[1,1′-biphenyl]-3-carboxylate]	≥ 3000	> 100		
Cn1ccn(-c2ccc(-c3cc(F)cc(-c4ccnc(N5CCNCCC5=O)c4)c3O)cc2Cl)c1=O [Example 665, 4-(4-(3′-chloro-5-fluoro-2-hydroxy-4′-(3-methyl-2-oxo-2,3-dihydro-1H-imidazol-1-yl)-[1,1′-biphenyl]-3-yl)pyridin-2-yl)-1,4-diazepan-5-one]	30 to 300	0.01 to 1		
Cn1ccn(-c2ccc(-c3cc(F)nc(-c4cccc(N5CCN(C(C)(C)C)CC5)c4)c3O)cc2Cl)c1=O [Example 1029, 1-(4-(2-(3-(4-(tert-Butyl)piperazin-1-yl)phenyl)-6-fluoro-3-hydroxypyridin-4-yl)-2-chlorophenyl)-3-methyl-1H-imidazol-2(3H)-one]			0.3 to 30	0.01 to 1
Cn1ccn(-c2ccc(-c3cc(F)cc(-c4cc(N5CC[C@@](C)(O)C5)n(C)c(=O)c4)c3O)cc2Cl)c1=O [Example 777, (R)-4-(3′-chloro-5-fluoro-2-hydroxy-4′-(3-methyl-2-oxo-2,3-dihydro-1H-imidazol-1-yl)-[1,1′-biphenyl]-3-yl)-6-(3-hydroxy-3-methylpyrrolidin-1-yl)-1-methylpyridin-2(1H)-one]	0.3 to 30	0.01 to 1		
Cn1ccn(-c2ccc(-c3cc(F)cc(-c4cccc(N5CCN(C(C)(C)C)CC5)n4)c3O)cc2Cl)c1=O [Example 950, 1-(3′-(6-(4-(tert-butyl)piperazin-1-yl)pyridin-2-yl)-3-chloro-5′-fluoro-2′-hydroxy-[1,1′-biphenyl]-4-yl)-3-methyl-1H-imidazol-2(3H)-one]			300 to 3000	> 100
Cc1cc(-c2ccc(-n3ccn(C)c3=O)c(Cl)c2)c(O)c(-c2cnc(N)c(N3CCN(C(C)(C)C)CC3)c2)n1 [Example 962, 1-(4-(6′-amino-5′-(4-(tert-butyl)piperazin-1-yl)-3-hydroxy-6-methyl-[2,3′-bipyridin]-4-yl)-2-chlorophenyl)-3-methyl-1H-imidazol-2(3H)-one]			0.3 to 30	1 to 10

Now from value to compound:

GI50 [1, 3] [nM]	IC50 [2, 4] [nM]	GI50 [1, 5] [nM]	IC50 [2, 6] [nM]	SMILES
0.3 to 30	0.01 to 1			Cn1ccn(-c2ccc(-c3cc(F)cc(-c4ccnc(N5CCN(CCO)CC5)c4)c3O)cc2Cl)c1=O [Example 471, 1-(3-chloro-5′-fluoro-2′-hydroxy-3′-(2-(4-(2-hydroxyethyl)piperazin-1-yl)pyridin-4-yl)-[1,1′-biphenyl]-4-yl)-3-methyl-1H-imidazol-2(3H)-one]
300 to 3000	0.01 to 1			Cn1ccn(-c2ccc(-c3cc(F)cc(-c4ccnc(N5CCN[C@H](CC(=O)O)C5)c4)c3O)cc2Cl)c1=O [Example 653]
0.3 to 30	1 to 10			Cn1ccn(-c2ccc(-c3cc(F)cc(-c4ccnc(N5CCN[C@H](CO)C5)c4)c3O)cc2Cl)c1=O [Example 556, (S)-1-(3-chloro-5′-fluoro-2′-hydroxy-3′-(2-(3-(hydroxymethyl)piperazin-1-yl)pyridin-4-yl)-[1,1′-biphenyl]-4-yl)-3-methyl-1H-imidazol-2(3H)-one]
0.3 to 30	1 to 10			Cn1ccn(-c2ccc(-c3cc(F)cc(-c4ccnc(N5CC6CCC6(N)C5)c4)c3O)cc2Cl)c1=O (stereo not shown) [Example 806, 1-(3′-(2-(1-amino-3-azabicyclo[3.2.0]heptan-3-yl)pyridin-4-yl)-3-chloro-5′-fluoro-2′-hydroxy-[1,1′-biphenyl]-4-yl)-3-methyl-1H-imidazol-2(3H)-one]
0.3 to 30	0.01 to 1			Cn1ccn(-c2ccc(-c3cc(F)cc(-c4ccnc(N5C[C@@H](N)[C@H](O)C5)c4)c3O)cc2Cl)c1=O [Example 490, 1-(3′-(2-((3R,4R)-3-amino-4-hydroxypyrrolidin-1-yl)pyridin-4-yl)-3-chloro-5′-fluoro-2′-hydroxy-[1,1′-biphenyl]-4-yl)-3-methyl-1H-imidazol-2(3H)-one]
0.3 to 30	1 to 10			CC[C@@]1(O)CCN(c2cc(-c3cc(F)cc(-c4ccc(-n5ccn(C)c5=O)c(Cl)c4)c3O)ccn2)C1 [Example 820, (R)-1-(3-chloro-3′-(2-(3-ethyl-3-hydroxypyrrolidin-1-yl)pyridin-4-yl)-5′-fluoro-2′-hydroxy-[1,1′-biphenyl]-4-yl)-3-methyl-1H-imidazol-2(3H)-one]
300 to 3000	10 to 100			C[C@H]1CCCN(c2cc(-c3cc(F)cc(-c4ccc(-n5ccn(C)c5=O)c(Cl)c4)c3O)ccn2)C1 [Example 632, (S)-1-(3-chloro-5′-fluoro-2′-hydroxy-3′-(2-(3-methylpiperidin-1-yl)pyridin-4-yl)-[1,1′-biphenyl]-4-yl)-3-methyl-1H-imidazol-2(3H)-one]
0.3 to 30	1 to 10			Cn1ccn(-c2ccc(-c3cc(F)cc(-c4ccnc(N5CC6CNC(C6)C5)c4)c3O)cc2Cl)c1=O (stereo not shown) [Example 554, 1-(3′-(2-(3,6-diazabicyclo[3.2.1]octan-3-yl)pyridin-4-yl)-3-chloro-5′-fluoro-2′-hydroxy-[1,1′-biphenyl]-4-yl)-3-methyl-1H-imidazol-2(3H)-one]
